Measured values published in patent publication US8283353B2, “Fused ring compound and use thereof” (Takeda Pharmaceutical Company Limited, priority 2009, dated 2012).

Key:
human AT1 receptor = molecular target: T1, human AT1 receptor (Homo sapiens, UniProt P30556); assay: AT1 receptor antagonistic activity: [125I]-angiotensin II binding assay on human AT1 receptor-expressing CHO-K1 cellular membrane fraction; conditions: 22.5 pM [125I]-angiotensin II, 1 hr room temperature
T1 construct: expressed in transfected cells; membrane fraction
T1 sequence (P30556 1-359): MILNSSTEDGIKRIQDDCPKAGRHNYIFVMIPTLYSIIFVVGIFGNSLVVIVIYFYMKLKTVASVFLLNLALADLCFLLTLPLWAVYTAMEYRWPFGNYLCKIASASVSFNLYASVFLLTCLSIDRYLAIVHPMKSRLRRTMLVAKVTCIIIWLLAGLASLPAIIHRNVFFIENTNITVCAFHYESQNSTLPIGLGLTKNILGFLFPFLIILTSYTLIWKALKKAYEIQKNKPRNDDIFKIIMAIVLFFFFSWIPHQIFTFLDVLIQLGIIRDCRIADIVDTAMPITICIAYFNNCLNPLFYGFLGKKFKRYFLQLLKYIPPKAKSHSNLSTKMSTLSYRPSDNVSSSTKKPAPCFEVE
Summary of the method: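 Competition binding used radiolabelled angiotensin II on stably transfected CHO-K1 membrane fractions in Tris pH 7.4/MgCl2 buffer, optionally containing 0.3 mg/mL fatty acid-free BSA, 1 hr at room temperature. Filtration onto GF/C separated bound tracer, and nonspecific binding was measured with candesartan.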

human PPARγ = molecular target: T2, human PPARγ (Homo sapiens, UniProt P37231); assay: PPARγ agonistic activity: luciferase reporter assay in PPARγ:RXRα:4ERPP/CHO-K1 cells; type: cell-based; conditions: CHO-K1, test compound 10^−6 M; luciferase activity of control compound X (1 μM) = 100%, non-administration group = 0%
T2 construct: expressed in transfected cells
T2 sequence (P37231 1-477 isoform P37231-2): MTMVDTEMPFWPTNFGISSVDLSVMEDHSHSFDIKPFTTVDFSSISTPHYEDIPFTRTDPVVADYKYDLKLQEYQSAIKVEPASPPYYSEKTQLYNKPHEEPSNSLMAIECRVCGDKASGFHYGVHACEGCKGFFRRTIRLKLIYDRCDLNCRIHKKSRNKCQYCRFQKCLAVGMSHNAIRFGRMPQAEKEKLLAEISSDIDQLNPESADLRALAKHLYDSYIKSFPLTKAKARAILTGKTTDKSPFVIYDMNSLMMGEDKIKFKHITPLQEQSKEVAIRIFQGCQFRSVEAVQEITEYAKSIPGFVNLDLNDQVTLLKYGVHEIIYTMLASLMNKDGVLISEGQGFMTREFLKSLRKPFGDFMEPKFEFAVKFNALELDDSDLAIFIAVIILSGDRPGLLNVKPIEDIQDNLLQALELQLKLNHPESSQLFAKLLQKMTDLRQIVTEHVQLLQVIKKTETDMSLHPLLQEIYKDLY
T2 sequence (P19793 1-462 partner): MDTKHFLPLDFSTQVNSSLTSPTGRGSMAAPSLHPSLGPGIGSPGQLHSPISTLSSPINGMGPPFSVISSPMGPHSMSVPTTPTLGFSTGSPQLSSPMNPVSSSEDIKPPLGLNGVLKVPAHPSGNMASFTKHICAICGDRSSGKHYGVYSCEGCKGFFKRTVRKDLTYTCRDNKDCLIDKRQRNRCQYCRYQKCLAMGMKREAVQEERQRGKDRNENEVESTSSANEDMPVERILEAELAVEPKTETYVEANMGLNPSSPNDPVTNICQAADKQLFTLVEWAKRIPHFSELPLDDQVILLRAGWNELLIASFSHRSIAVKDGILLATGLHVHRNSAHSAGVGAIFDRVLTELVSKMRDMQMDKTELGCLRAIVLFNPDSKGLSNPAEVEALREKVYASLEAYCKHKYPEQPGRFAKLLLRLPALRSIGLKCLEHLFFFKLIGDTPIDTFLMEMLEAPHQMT
Summary of the method: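 CHO-K1 cells stably carrying hPPARγ/RXRα and a 4ERPP luciferase reporter, dosed with test compound for 1 day at 37 °C in Ham's F12 with 0.1% fatty acid-free BSA. Luciferase read by luminescence; activity given as % of 1 μM control compound X (100%) versus untreated (0%).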

Structure (SMILES) | IC50 (human AT1 receptor) | activation at 1 µM (human PPARγ)
CCCc1c(Cc2ccc(-c3ccccc3-c3noc(=O)[nH]3)cc2)c(=O)n(C2CCC(=NOC(C)C)CC2)c2ncnn12 (centres unmarked) [Example 193, 4-{4-[(1-methylethoxy)imino]cyclohexyl}-6-{[2′-(5-oxo-4,5-dihydro-1,2,4-oxadiazol-3-yl)biphenyl-4-yl]methyl}-7-propyl[1,2,4]triazolo[1,5-a]pyrimidin-5(4H)-one] | 2 nM | 28%
CCCc1c(Cc2ccc(-c3ccccc3-c3noc(=O)[nH]3)cc2)c(=O)n(C2CCC(=NOC3CCOCC3)CC2)c2ncnn12 (centres unmarked) [Example 195, 6-{[2′-(5-oxo-4,5-dihydro-1,2,4-oxadiazol-3-yl)biphenyl-4-yl]methyl}-7-propyl-4-{4-[(tetrahydro-2H-pyran-4-yloxy)imino]cyclohexyl}[1,2,4]triazolo[1,5-a]pyrimidin-5(4H)-one] | 2.5 nM | 19%
CCCc1c(Cc2ccc(-c3ccccc3-c3noc(=O)[nH]3)cc2)c(=O)n([C@H]2CC[C@H](OCC(O)(CC)CC)CC2)c2nc(C)nn12 [Example 197, 4-[trans-4-(2-ethyl-2-hydroxybutoxy)cyclohexyl]-2-methyl-6-{[2′-(5-oxo-4,5-dihydro-1,2,4-oxadiazol-3-yl)biphenyl-4-yl]methyl}-7-propyl[1,2,4]triazolo[1,5-a]pyrimidin-5(4H)-one] | 2 nM | 17%
CCCc1c(Cc2ccc(-c3ccccc3-c3noc(=O)[nH]3)cc2)c(=O)n([C@H]2CC[C@]3(CC2)CC(C)=NO3)c2ncnn12 [Example 204, 4-[(5R,8R)-3-methyl-1-oxa-2-azaspiro[4.5]dec-2-en-8-yl]-6-{[2′-(5-oxo-4,5-dihydro-1,2,4-oxadiazol-3-yl)biphenyl-4-yl]methyl}-7-propyl[1,2,4]triazolo[1,5-a]pyrimidin-5(4H)-one] | 2.7 nM | 26%
CCCc1c(Cc2ccc(-c3ccccc3-c3noc(=O)[nH]3)cc2)c(=O)n([C@H]2CC[C@@]3(CC2)CC(C)=NO3)c2ncnn12 [Example 205, 4-[(5S,8S)-3-methyl-1-oxa-2-azaspiro[4.5]dec-2-en-8-yl]-6-{[2′-(5-oxo-4,5-dihydro-1,2,4-oxadiazol-3-yl)biphenyl-4-yl]methyl}-7-propyl[1,2,4]triazolo[1,5-a]pyrimidin-5(4H)-one] | 2.7 nM | 27%
CCCCc1c(Cc2ccc(-c3ccccc3-c3noc(=O)[nH]3)cc2)c(=O)n([C@H]2CC[C@H](OC(C)C(C)(C)O)CC2)c2ncnn12 (stereo partly drawn) [Example 206, 7-butyl-4-[trans-4-(2-hydroxy-1,2-dimethylpropoxy)cyclohexyl]-6-{[2′-(5-oxo-4,5-dihydro-1,2,4-oxadiazol-3-yl)biphenyl-4-yl]methyl}[1,2,4]triazolo[1,5-a]pyrimidin-5(4H)-one] | 2.2 nM | 23%
CCCc1c(Cc2ccc(-c3ccccc3-c3noc(=O)[nH]3)cc2)c(=O)n([C@H]2CC[C@H](OCC#N)CC2)c2ncnn12 [Example 210, ({trans-4-[5-oxo-6-{[2′-(5-oxo-4,5-dihydro-1,2,4-oxadiazol-3-yl)biphenyl-4-yl]methyl}-7-propyl[1,2,4]triazolo[1,5-a]pyrimidin-4(5H)-yl]cyclohexyl}oxy)acetonitrile] | 1.9 nM | 33%
CCCc1c(Cc2ccc(-c3ccccc3-c3noc(=O)[nH]3)cc2)c(=O)n([C@H]2CC[C@H](OCC(C)=O)CC2)c2ncnn12 [Example 215, 6-{[2′-(5-oxo-4,5-dihydro-1,2,4-oxadiazol-3-yl)biphenyl-4-yl]methyl}-4-[trans-4-(2-oxopropoxy)cyclohexyl]-7-propyl[1,2,4]triazolo[1,5-a]pyrimidin-5(4H)-one] | 1.9 nM | 24%
CCCc1c(Cc2ccc(-c3ccccc3-c3noc(=O)[nH]3)cc2)c(=O)n([C@H]2CC[C@H](OC/C(C)=N/OC)CC2)c2ncnn12 [Example 216, 4-(trans-4-{[(2E)-2-(methoxyimino)propyl]oxy}cyclohexyl)-6-{[2′-(5-oxo-4,5-dihydro-1,2,4-oxadiazol-3-yl)biphenyl-4-yl]methyl}-7-propyl[1,2,4]triazolo[1,5-a]pyrimidin-5(4H)-one] | 1.6 nM | 23%
CCCc1c(Cc2ccc(-c3ccccc3-c3noc(=O)[nH]3)cc2)c(=O)n([C@H]2CC[C@H](OCC(O)(CC)CC)CC2)c2ncnn12 [Example 225, 4-[trans-4-(2-ethyl-2-hydroxybutoxy)cyclohexyl]-6-{[2′-(5-oxo-4,5-dihydro-1,2,4-oxadiazol-3-yl)biphenyl-4-yl]methyl}-7-propyl[1,2,4]triazolo[1,5-a]pyrimidin-5(4H)-one] | 2.3 nM | 21%
CCCc1c(Cc2ccc(-c3ccccc3-c3noc(=O)[nH]3)cc2)c(=O)n([C@H]2CC[C@H](OCC3(C#N)CCC3)CC2)c2ncnn12 [Example 227, 1-[({trans-4-[5-oxo-6-{[2′-(5-oxo-4,5-dihydro-1,2,4-oxadiazol-3-yl)biphenyl-4-yl]methyl}-7-propyl[1,2,4]triazolo[1,5-a]pyrimidin-4(5H)-yl]cyclohexyl}oxy)methyl]cyclobutanecarbonitrile] | 2.5 nM | 23%
CCCc1c(Cc2ccc(-c3ccccc3-c3noc(=O)[nH]3)cc2)c(=O)n([C@H]2CC[C@H](OCC3(CO)CCC3)CC2)c2ncnn12 [Example 228, 4-(trans-4-{[1-(hydroxymethyl)cyclobutyl]methoxy}cyclohexyl)-6-{[2′-(5-oxo-4,5-dihydro-1,2,4-oxadiazol-3-yl)biphenyl-4-yl]methyl}-7-propyl[1,2,4]triazolo[1,5-a]pyrimidin-5(4H)-one] | 1.5 nM | 27%
CCCCc1c(Cc2ccc(-c3ccccc3-c3noc(=O)[nH]3)cc2)c(=O)n([C@H]2CC[C@H](OCC(C)(C)O)CC2)c2ncnn12 [Example 232, 7-butyl-4-[trans-4-(2-hydroxy-2-methylpropoxy)cyclohexyl]-6-{[2′-(5-oxo-4,5-dihydro-1,2,4-oxadiazol-3-yl)biphenyl-4-yl]methyl}[1,2,4]triazolo[1,5-a]pyrimidin-5(4H)-one] | 2.1 nM | 35%
CCCc1c(Cc2ccc(-c3ccccc3-c3noc(=O)[nH]3)cc2F)c(=O)n([C@H]2CC[C@H](OCC(C)(C)O)CC2)c2ncnn12 [Example 233, 6-{[3-fluoro-2′-(5-oxo-4,5-dihydro-1,2,4-oxadiazol-3-yl)biphenyl-4-yl]methyl}-4-[trans-4-(2-hydroxy-2-methylpropoxy)cyclohexyl]-7-propyl[1,2,4]triazolo[1,5-a]pyrimidin-5(4H)-one] | 1.9 nM | 26%
CCCc1c(Cc2ccc(-c3ccccc3-c3noc(=O)[nH]3)cc2)c(=O)n([C@H]2CC[C@H](OC(C)C#N)CC2)c2ncnn12 (stereo partly drawn) [Example 244, 2-({trans-4-[5-oxo-6-{[2′-(5-oxo-4,5-dihydro-1,2,4-oxadiazol-3-yl)biphenyl-4-yl]methyl}-7-propyl[1,2,4]triazolo[1,5-a]pyrimidin-4(5H)-yl]cyclohexyl}oxy)propanenitrile] | 2.3 nM | 29%
CCCc1c(Cc2ccc(-c3ccccc3-c3noc(=O)[nH]3)cc2F)c(=O)n([C@H]2CC[C@H](OC(C)C#N)CC2)c2nc(C)nn12 (stereo partly drawn) [Example 249, 2-({trans-4-[6-{[3-fluoro-2′-(5-oxo-4,5-dihydro-1,2,4-oxadiazol-3-yl)biphenyl-4-yl]methyl}-2-methyl-5-oxo-7-propyl[1,2,4]triazolo[1,5-a]pyrimidin-4(5H)-yl]cyclohexyl}oxy)propanenitrile] | 2.5 nM | 35%
